Tested on: K98450-129-R-PDC complex spheroid growth, percent test/control
Experiment: Anticancer human tumor K98450-129-R-PDC patient-derived colon adenocarcinoma cell line growth inhibition [RAS]
Settings: for IC50: curve of first compound; for viability, T/C: stronger effect = lower value; active means viability on the fitted dose curve at most 10% of control; inactive means the rest
How it was run: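 Multi-cell-type spheroids: tumor cells plus HUVEC endothelial cells and mesenchymal stem cells. RAS-pathway inhibitors were combined with targeted agents, each dosed in half-log steps down from clinical Cmax, or from 10 microM when Cmax was unknown.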
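Further: spheroids exposed to agents for seven days before the viability readout.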
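Wherever viability, T/C is given: luminescence used as a proxy for viable cell amount.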

C=CC(=O)N1CCN(c2nc(OCC3CCCN3C)nc3c(F)c(-c4nc(N)cc(C)c4C(F)(F)F)c(Cl)cc23)C(C)C1 (centres undefined) + CCn1c(-c2cc(N3CCN(C)CC3)cnc2C(C)OC)c2c3cc(ccc31)-c1csc(n1)CC(NC(=O)C1CC1C)C(=O)N1CCCC(N1)C(=O)OCC(C)(C)C2
30.4 nM: IC50 (second compound 0.00949 µM)
52.7 nM: IC50 (second compound 0.003 µM)
< 3.16 nM: IC50 (second compound 0.03 µM) | IC50 (second compound 0.0949 µM) | IC50 (second compound 0.3 µM)
90.6 nM: IC50 (second compound 0.000949 µM)
inactive: viability, T/C (second compound 0.000949 µM, first compound 0.00316 µM) 88% | viability, T/C (second compound 0.000949 µM, first compound 0.01 µM) 71.2% | viability, T/C (second compound 0.000949 µM, first compound 0.0316 µM) 69% | viability, T/C (second compound 0.000949 µM, first compound 0.1 µM) 44.4% | viability, T/C (second compound 0.000949 µM, first compound 0.316 µM) 40.1% | viability, T/C (second compound 0.000949 µM, first compound 1 µM) 34.5% | viability, T/C (second compound 0.003 µM, first compound 0.00316 µM) 88% | viability, T/C (second compound 0.003 µM, first compound 0.01 µM) 68.5% | viability, T/C (second compound 0.003 µM, first compound 0.0316 µM) 55.6% | viability, T/C (second compound 0.003 µM, first compound 0.1 µM) 41.8% | viability, T/C (second compound 0.003 µM, first compound 0.316 µM) 42.1% | viability, T/C (second compound 0.003 µM, first compound 1 µM) 34.8% | viability, T/C (second compound 0.00949 µM, first compound 0.00316 µM) 72.7% | viability, T/C (second compound 0.00949 µM, first compound 0.01 µM) 61.7% | viability, T/C (second compound 0.00949 µM, first compound 0.0316 µM) 49.8% | viability, T/C (second compound 0.00949 µM, first compound 0.1 µM) 37.2% | viability, T/C (second compound 0.00949 µM, first compound 0.316 µM) 29.1% | viability, T/C (second compound 0.00949 µM, first compound 1 µM) 20% | viability, T/C (second compound 0.03 µM, first compound 0.00316 µM) 44.8% | viability, T/C (second compound 0.03 µM, first compound 0.01 µM) 46.3% | viability, T/C (second compound 0.03 µM, first compound 0.0316 µM) 37.3% | viability, T/C (second compound 0.03 µM, first compound 0.1 µM) 19.8% | viability, T/C (second compound 0.03 µM, first compound 0.316 µM) 20.9% | viability, T/C (second compound 0.03 µM, first compound 1 µM) 18.1% | viability, T/C (second compound 0.0949 µM, first compound 0.00316 µM) 16.1% | viability, T/C (second compound 0.0949 µM, first compound 0.01 µM) 16.9% | viability, T/C (second compound 0.0949 µM, first compound 0.0316 µM) 14.4% | viability, T/C (second compound 0.0949 µM, first compound 0.1 µM) 14.7% | viability, T/C (second compound 0.0949 µM, first compound 0.316 µM) 14.3% | viability, T/C (second compound 0.0949 µM, first compound 1 µM) 12% | viability, T/C (second compound 0.3 µM, first compound 0.00316 µM) 10.9% | viability, T/C (second compound 0.3 µM, first compound 0.01 µM) 10.5% | viability, T/C (second compound 0.3 µM, first compound 0.0316 µM) 11.6% | viability, T/C (second compound 0.3 µM, first compound 0.1 µM) 10.3% | viability, T/C (second compound 0.3 µM, first compound 0.316 µM) 11.7% | viability, T/C (second compound 0.3 µM, first compound 1 µM) 12.4%

CC1(C)CCC(Nc2ncc(C(F)(F)F)c(-c3c[nH]c4c(P(C)(C)=O)c(C#N)ccc34)n2)CN1 (centres undefined) + CCn1c(-c2cc(N3CCN(C)CC3)cnc2C(C)OC)c2c3cc(ccc31)-c1csc(n1)CC(NC(=O)C1CC1C)C(=O)N1CCCC(N1)C(=O)OCC(C)(C)C2
< 0.949 nM: IC50 (second compound 0.0949 µM) | IC50 (second compound 0.3 µM)
inactive: viability, T/C (second compound 0.000949 µM, first compound 0.000949 µM) 100% | viability, T/C (second compound 0.000949 µM, first compound 0.003 µM) 82.2% | viability, T/C (second compound 0.000949 µM, first compound 0.00949 µM) 96.2% | viability, T/C (second compound 0.000949 µM, first compound 0.03 µM) 89.7% | viability, T/C (second compound 0.000949 µM, first compound 0.0949 µM) 80.8% | viability, T/C (second compound 0.000949 µM, first compound 0.3 µM) 79.5% | viability, T/C (second compound 0.003 µM, first compound 0.000949 µM) 81.2% | viability, T/C (second compound 0.003 µM, first compound 0.003 µM) 83.2% | viability, T/C (second compound 0.003 µM, first compound 0.00949 µM) 85.6% | viability, T/C (second compound 0.003 µM, first compound 0.03 µM) 94.6% | viability, T/C (second compound 0.003 µM, first compound 0.0949 µM) 77.2% | viability, T/C (second compound 0.003 µM, first compound 0.3 µM) 69.4% | viability, T/C (second compound 0.00949 µM, first compound 0.000949 µM) 75.2% | viability, T/C (second compound 0.00949 µM, first compound 0.003 µM) 77.1% | viability, T/C (second compound 0.00949 µM, first compound 0.00949 µM) 76.7% | viability, T/C (second compound 0.00949 µM, first compound 0.03 µM) 77.8% | viability, T/C (second compound 0.00949 µM, first compound 0.0949 µM) 81.7% | viability, T/C (second compound 0.00949 µM, first compound 0.3 µM) 60.2% | viability, T/C (second compound 0.03 µM, first compound 0.000949 µM) 54.1% | viability, T/C (second compound 0.03 µM, first compound 0.003 µM) 49.5% | viability, T/C (second compound 0.03 µM, first compound 0.00949 µM) 51.2% | viability, T/C (second compound 0.03 µM, first compound 0.03 µM) 61.7% | viability, T/C (second compound 0.03 µM, first compound 0.0949 µM) 63.1% | viability, T/C (second compound 0.03 µM, first compound 0.3 µM) 43.8% | viability, T/C (second compound 0.0949 µM, first compound 0.000949 µM) 24.6% | viability, T/C (second compound 0.0949 µM, first compound 0.003 µM) 26.8% | viability, T/C (second compound 0.0949 µM, first compound 0.00949 µM) 30.6% | viability, T/C (second compound 0.0949 µM, first compound 0.03 µM) 35.1% | viability, T/C (second compound 0.0949 µM, first compound 0.0949 µM) 40.3% | viability, T/C (second compound 0.0949 µM, first compound 0.3 µM) 37% | viability, T/C (second compound 0.3 µM, first compound 0.000949 µM) 12.7% | viability, T/C (second compound 0.3 µM, first compound 0.003 µM) 14.7% | viability, T/C (second compound 0.3 µM, first compound 0.00949 µM) 17.9% | viability, T/C (second compound 0.3 µM, first compound 0.03 µM) 23.5% | viability, T/C (second compound 0.3 µM, first compound 0.0949 µM) 28.4% | viability, T/C (second compound 0.3 µM, first compound 0.3 µM) 25.2%
> 300 nM: IC50 (second compound 0.000949 µM) | IC50 (second compound 0.003 µM) | IC50 (second compound 0.00949 µM) | IC50 (second compound 0.03 µM)
